Experimental data published in article PMC9131373 (Drug testing and analysis, 2021).
Several values for one entry are separate records, joined by “and”; a condition that tells them apart may be missing. Equal values may be shown once. Read-outs that look alike come from different tables or passages of the source.

Legend:
[1] = cited from earlier work; for Intracellular TFV-DP levels, higher: than levels without boosting
[2] = cited from earlier work
[3] = TFV and FTC concentrations in participant hair samples by LC/MS/MS; format: in vivo, human; conditions: for Difference of average hair concentration, TAF versus TDF: those on TAF relative to those on TDF
[4] = MSM on TAF/FTC/COBI/EVG versus TDF/FTC; cited from earlier work
[5] = Stability of TFV and FTC in stock solutions, processed samples and hair; format: physicochemical; conditions: for Stability in processed samples: a week in a refrigerator at 4°C; for Time stable in hair samples: room temperature, deviation less than ±15%
[6] = Plasma pharmacokinetics of TFV after TDF or TAF; format: in vivo, human; conditions: from ref 75 and ref 76
[7] = cited from earlier work; remark: listed apart in the source
[8] = TDF/FTC to HIV-noninfected volunteers, directly-observed, 7 days a week; cited from earlier work
[9] = 6 participants on TAF/FTC-based ART
[10] = 10 participants on TDF/FTC-based ART
[11] = TAF-based ART, with booster (COBI or RTV)
[12] = TDF-based ART, not receiving boosters
[13] = TDF-based ART, receiving boosters (COBI or RTV)
[14] = average of original and repeated, one line per patient
[15] = both TDF- and TAF-containing ART, not on booster drugs
[16] = both TDF- and TAF-containing ART, on concomitant boosters (COBI or RTV)
[17] = 200 μg/ml in 50% MeOH, at least 6 h at room temperature
[18] = TAF-based versus TDF-based regimen with darunavir/COBI/FTC
[19] = plasma, TAF (8 mg) compared with TDF (300 mg)
[20] = plasma, TAF (25 mg) compared with TDF (300 mg)
[21] = plasma, from TAF with darunavir/COBI/FTC
[22] = plasma, from TDF with darunavir/COBI/FTC

Row | Compound | acidic pKa [2] | Average hair concentration [3, 9] | Average hair concentration [3, 10] | Hair concentration [3, 11] [ng/mg hair] | Hair concentration ([3]; TAF-based ART, without booster) [ng/mg hair] | Hair concentration [3, 12] [ng/mg hair] | Hair concentration ([3]; TDF-based ART, receiving COBI) [ng/mg hair] | Hair concentration ([3]; TDF-based ART, receiving RTV) [ng/mg hair] | Hair concentration [3, 13] [ng/mg hair] | Hair concentration [3, 15] [ng/mg hair] | Hair concentration [3, 16] [ng/mg hair] | Difference of average hair concentration, TAF versus TDF [3] [%] | Stock solution stability [5, 17] [%] | Stability in processed samples [5] [%] | Stock solution stability ([5]; at least 1 year at 4°C) [%] | Time stable in hair samples [5] | also measured
1 | CC(Cn1cnc2c(N)ncnc21)OCP(=O)(O)OP(=O)(O)OP(=O)(O)O (stereo in doubt) [TFV-DP, tenofovir diphosphate] |  |  |  |  |  |  |  |  |  |  |  |  |  |  |  |  | Intracellular TFV-DP levels, higher ([1]; EVG/COBI/TAF/FTC): 5.3 fold; AUC of TFV-DP in PBMCs, higher than on TDF ([1]; TAF 8 mg versus TDF): 16.7%; AUC of TFV-DP in PBMCs, higher than on TDF ([1]; TAF 25 mg versus TDF): 613%; Intracellular TFV-DP levels, higher ([1]; darunavir/COBI/TAF/FTC): 652%
2 | Nc1nc(=O)n([C@@H]2CS[C@H](CO)O2)cc1F [FTC, emtricitabine] | 13.83 | 1.04 ± 0.83 ng/mg hair and 1.04 ng/mg hair | 0.846 ± 0.659 ng/mg hair and 0.846 ng/mg hair | 0.705 ± 0.233 | 1.37 ± 1.16 | 0.428 ± 0.343 | 1.26 ± 0.59 | 0.851 ± 0.807 | 1.03 ± 0.70 | 0.898 ± 0.925 | 0.930 ± 0.601 | 22.9 | > 95.0 | > 95.0 | > 95.0 | at least 18 months | basic pKa [2]: 2.4; FTC normalized average concentration, Average concentration [3, 14]: 0.988 ng/mg hair and 2.76 ng/mg hair and 1.05 ng/mg hair and 0.412 ng/mg hair and 1.86 ng/mg hair and 0.146 ng/mg hair and 0.840 ng/mg hair and 0.348 ng/mg hair and 0.694 ng/mg hair and 0.502 ng/mg hair; Median urine FTC concentrations between regimens [4]: not different
3 | Nc1[15n][13c](=O)[15n]([C@@H]2CS[C@H](CO)O2)cc1F [FTC-^13C,^15N2, emtricitabine-^13C,^15N2] |  |  |  |  |  |  |  |  |  |  |  |  | > 95.0 |  |  |  | 
4 | C[C@H](Cn1cnc2c(N)ncnc21)OCP(=O)(O)O [TFV, Tenofovir] | 1.61 | 0.0379 ± 0.0139 ng/mg hair and 0.0379 ng/mg hair | 0.0553 ± 0.0318 ng/mg hair and 0.0553 ng/mg hair | 0.0389 ± 0.0117 | 0.0370 ± 0.0185 | 0.0483 ± 0.0327 | 0.0844 ± 0.0357 | 0.0388 ± 0.0146 | 0.0584 ± 0.0336 | 0.0426 ± 0.0246 | 0.0525 ± 0.0295 | −31.5 | > 95.0 | > 95.0 | > 95.0 | at least 18 months | intracellular TFV concentration, increase ([1]; after switching from EVG/COBI/TDF/FTC to EVG/COBI/TAF/FTC): 141%; plasma AUC of TFV, boosted versus non-boosted, higher ([6]; TAF co-administrated with darunavir/COBI): approximately 5 times; plasma AUC of TFV, boosted versus non-boosted, higher ([6]; TDF co-administrated with darunavir/COBI): 1.95 times; plasma Cmax, lower ([7]; 25 mg TAF compared with 300 mg TDF): 17 times; plasma exposure of TFV, lower ([7]; EVG/COBI/TAF/FTC compared to EVG/COBI/TDF/FTC): 91%; TFV concentrations in the plasma with TAF lower than with TDF ([7]; TAF versus TDF): 4 fold; TFV exposure in plasma, decrease ([7]; TAF-based compared with TDF-based treatment): approximately 90%; AUC of TFV, decrease [7, 18]: 90.9%; Cmax of TFV, decrease [7, 18]: 95.5%; AUC of TFV, decrease [7, 19]: 96.6%; Cmax of TFV, decrease [7, 19]: 98.3%; AUC of TFV, decrease [7, 20]: 86.0%; Cmax of TFV, decrease [7, 20]: 93.6%; AUC of TFV [7, 21]: 339 ng·h/mL; Cmax of TFV [7, 21]: 18.8 ng/mL; AUC of TFV [7, 22]: 3737 ng·h/mL; Cmax of TFV [7, 22]: 413 ng/mL; TFV normalized average concentration, Average concentration [3, 14]: 0.0500 ng/mg hair and 0.0698 ng/mg hair and 0.0375 ng/mg hair and 0.0186 ng/mg hair and 0.0973 ng/mg hair and 0.0289 ng/mg hair and 0.0850 ng/mg hair and 0.0304 ng/mg hair and 0.0274 ng/mg hair and 0.0468 ng/mg hair; Median urine TFV concentrations, lower on TAF-based regimen than on TDF [4]: approximately 14 times; median TFV hair concentration [8]: 0.038 ng/mg hair
5 | CC(Cn1cnc2c(N)ncnc21)OCP(=O)(O)O (stereo not shown) [TFV-d6, Tenofovir-d6] |  |  |  |  |  |  |  |  |  |  |  |  | > 95.0 |  |  |  | 
